The source of these data is patent publication US20210186972A1, “FORMULATIONS AND METHODS FOR THE PREVENTION AND TREATMENT OF TUMOR METASTASIS AND TUMORIGENESIS” (THE UNITED STATES OF AMERICA, AS REPRESENTED BY THE …, priority 2018, published 2021).

Assay [1] relates to normal mouse hepatocytes. Put plainly: Nucleolar volume by EM in normal liver tissue. Format: in vivo. The note with it: treated normal mouse hepatocytes. How it is done: FIGS. 49A-49C are graphs showing quantitative evaluation of the EM images of FIG. 48.
The nucleolar disruption was reversible within 48 hours upon withdrawal of metarrestin (FIG. 47). Similar disruptions were observed among other treated cell lines, including PANC1 and PC3M cells (FIG. 48), primary tumor, and liver metastatic tissues in the PANC1 xenograft model (FIG. 21, right panels). […] The segregation of the nucleolar compartments observed by EM is believed to correspond to the nucleolar capping structures detected by immunofluorescence of nucleolar proteins (FIGS. 21A-21C, 23, and 50). The coupling of nucleolar segregation with PNC loss was confirmed across several cell lines by immunolabeling with antibodies against the nucleolar Pol I transcription initiation factors, UBF (upstream binding transcription factor) (FIGS. 23 and 50), or Pol I polymerase, RPA194 (FIG. 51). Factors involved in ribosome maturation, such as fibrillarin or NOPP140 (FIGS. 51 and 52) were similarly reorganized. In contrast, UBF distribution was not changed when the normal human fibroblast GM02153 cell line was treated with metarrestin at the same concentration (FIG. 53).

In assay [2] the test system is GFP-RPL29. Put plainly: Ribosome synthesis, inducible GFP-RPL29 cell line. The note with it: induced after exposure for 5 hours. Format: cell-based. How it is done:
FIG. 24 is a panel showing that metarrestin interferes with ribosomal biogenesis. An inducible RPL29-GFP-expressing cell line synthesizes RPL29-GFP when treated with tetracyclin (2nd column). When cells were treated with 1 μM metarrestin before tetracycline induction, the newly synthesized proteins accumulated in the nucleoli and nuclei (right most panels) compared to the DMSO control treated cells (2nd from right panels). Scale bars=5 μm.
To examine whether the disruption of the nucleolar structure impacts ribosome synthesis, a cell line expressing inducible GFP-RPL29 (a ribosomal subunit) was used.

The test system of assay [3] is RPA194 and UBF occupancy on rDNA. Nature of the assay: Quantitative ChIP on rDNA. Format: cell-based. The note with it: HeLa cells. Here is the method: ChIP-qPCR: 2-5×10^7 cells were used for each ChIP assay according to previously described protocols. Briefly, HeLa cells with or without metarrestin treatment were crosslinked with 1% formaldehyde for 10 min at room temperature with rotation, and then crosslinking was quenched by the addition of glycine. Fixed chromatin was sonicated by Covaris and used for immunoprecipitation with the indicated antibody. Isolated DNA was analyzed by qPCR using SYBR green on CFX Connect Real-Time PCR Detection System (BioRad). The comparative cycle threshold method was applied to evaluate occupancy from replicate PCR reactions relative to the level of input. […]
Psoralen crosslinks active accessible DNA under UV light without displacing nucleosomes or transcription factors, or changing chromatin states. […] To examine the interactions between Pol I transcription factors and rDNA, quantitative ChIP experiments were carried out using primer sets across promoter and coding regions of rDNA (FIG. 29-30E).

Assay [4] concerns eEF1A. Put plainly: Affinity purification with biotin-conjugated metarrestin and competition. Format: binding. From the text:
FIG. 35 is a Western blot illustrating that metarrestin effectively outcompeted recombinant eEF1A from binding to anchored biotinylated metarrestin-eEF1A complex. […] Increased eEF1A2 enhances PNCs and metastasis formation.

On to `N=c1c2c(-c3ccccc3)c(-c3ccccc3)n(Cc3ccccc3)c2ncn1[C@H]1CC[C@H](O)CC1` [metarrestin], for which, in assay [1], the Nucleolar volume entry is “not changed”. Further, in assay [2], the “Newly synthesized GFP-RPL29 in the cytoplasm” value is recorded as “largely undetected in the cytoplasm”; the “Production of GFP-RPL29 and its nucleolar localization” value was “appeared unchanged”. For the same molecule, the “UBF binding to rDNA” value in assay [3] is recorded as “without significant impact on UBF binding”. Besides, the “RPA194 occupancy on rDNA promoter and coding regions” value in assay [3] (p<0.01) was “significantly reduced RPA194 occupancy”. For the same molecule, the “Binding to eEF1A (competition and proteomic analysis)” value in assay [4] is recorded as “metarrestin-binding protein”.
